From patent US8536204B2, “Amides and thioamides as pesticides” (Bayer CropScience AG, priority 2009, dated 2013)

test system: not listed separately; experiment: Determination of the logP values (formic acid method) by HPLC; type: physicochemical; conditions: HPLC on reversed-phase column (C 18), acidic range (pH 3.4), 55° C.; Table 1
Protocol: 1) Description of Method for Determining the LogP Values (Formic Acid Method)
The logP values reported in the table were determined according to EEC-Directive 79/831 Annex V.A8 by HPLC (High Performance Liquid Chromatography) on a reversed-phase column (C 18). Temperature: 55° C.
Eluents for the determination in the acidic range (pH 3.4):
Eluent A: acetonitrile+1 ml of formic acid/litre. Eluent B: water+0.9 ml of formic acid/litre.
Gradient: from 10% eluent A/90% eluent B to 95% eluent A/5% eluent B in 4.25 min.
The calibration was effected with unbranched alkan-2-ones (with 3 to 16 carbon atoms), whose logP values are known (determination of the logP values on the basis of the retention times by linear interpolation between two successive alkanones). The lambda-max values were determined with reference to the UV spectra from 200 nm to 400 nm in the maxima of the chromatographic signals.

Q: For Cc1nn(-c2cccnc2)cc1C(=O)NC(C)C1CC1 (stereo not drawn) [Example 26], which “logP (HCOOH)” value is on record?
A: Its value is 1.45.

same assay, conditions: HPLC on reversed-phase column (C 18), acidic range (pH 3.4), 55° C.; Table 1; read-out: logP (HCOOH)

Q: For COC(=O)NNC(=O)c1cn(-c2cccnc2)nc1C [Example 50], which chromatographic logP is on record?
A: Its chromatographic logP is 0.52.

Q: With COC(=O)N(C)NC(=O)c1cn(-c2cccnc2)nc1C [Example 54] as the compound, how does the chromatographic logP read?
A: The chromatographic logP was 0.79.

same assay, conditions: reversed-phase HPLC column (C 18), pH 3.4, HPLC on reversed-phase column (C 18), acidic range (pH 3.4), 55° C.; Table 1; read-out: logP (HCOOH)

Q: For CCNC(=O)c1cnn(-c2cccnc2)c1 [Example 1, N-Ethyl-1-(pyridin-3-yl)-1H-pyrazole-4-carboxamide], which chromatographic logP is on record?
A: Its chromatographic logP is 0.64.

Q: Which chromatographic logP does the source give for Cc1nn(-c2cccnc2)cc1C(=O)NCC(F)(F)F [Example 2, 3-Methyl-1-(pyridin-3-yl)-N-(2,2,2-trifluoroethyl)-1H-pyrazole-4-carboxamide] here?
A: Its chromatographic logP is 1.45.

Q: With CN(C)C(=O)c1cnn(-c2cccnc2)c1 [Example 4] as the compound, how does the chromatographic logP read?
A: The chromatographic logP was 0.6.

Q: With O=C(NCc1ncccn1)c1cnn(-c2cccnc2)c1 [Example 5] as the compound, how does the chromatographic logP read?
A: The chromatographic logP was 0.51.

Q: Which chromatographic logP does the source give for O=C(NCC(F)F)c1cnn(-c2cccnc2)c1 [Example 6] here?
A: The chromatographic logP was 0.87.

Q: Which chromatographic logP does the source give for Cc1nn(-c2cccnc2)cc1C(=O)NCc1ncccn1 [Example 7] here?
A: Its chromatographic logP is 0.78.

Q: For CN(CC(F)(F)F)C(=O)c1cnn(-c2cccnc2)c1 [Example 8], which chromatographic logP is on record?
A: Its chromatographic logP is 1.43.

Q: With Cc1nn(-c2cccnc2)cc1C(=O)N(C)C [Example 10] as the compound, how does the chromatographic logP read?
A: The chromatographic logP was 0.7.

Q: For CON(C)C(=O)c1cnn(-c2cccnc2)c1 [Example 11], which chromatographic logP is on record?
A: The chromatographic logP was 0.97.

Q: Which chromatographic logP does the source give for FC(F)(F)CNC(=S)c1cnn(-c2cccnc2)c1 [Example 12, 1-(Pyridin-3-yl)-N-(2,2,2-trifluoroethyl)-1H-pyrazole-4-carbothioamide] here?
A: The chromatographic logP was 1.97.

Q: For O=C(NC1(C(F)(F)F)CC1)c1cnn(-c2cccnc2)c1 [Example 13], which chromatographic logP is on record?
A: The chromatographic logP was 1.4.

Q: With CC(NC(=O)c1cnn(-c2cccnc2)c1)C1CC1 (stereo not drawn) [Example 14] as the compound, how does the chromatographic logP read?
A: The chromatographic logP was 1.38.

Q: With CC(F)(F)CNC(=O)c1cnn(-c2cccnc2)c1 [Example 15] as the compound, how does the chromatographic logP read?
A: Its chromatographic logP is 1.11.

Q: Which chromatographic logP does the source give for O=C(NCc1ccccn1)c1cnn(-c2cccnc2)c1 [Example 16] here?
A: The chromatographic logP was 0.31.

Q: With O=C(NCC1Cc2ccccc2O1)c1cnn(-c2cccnc2)c1 (stereo not drawn) [Example 17] as the compound, how does the chromatographic logP read?
A: The chromatographic logP was 1.68.

Q: With O=C(NC1CC1)c1cnn(-c2cccnc2)c1 [Example 18] as the compound, how does the chromatographic logP read?
A: The chromatographic logP was 0.78.

Q: Which chromatographic logP does the source give for CN(C(=O)c1cnn(-c2cccnc2)c1)C1CC1 [Example 19] here?
A: The chromatographic logP was 1.09.

Q: For O=C(NCc1nc(C2CC2)no1)c1cnn(-c2cccnc2)c1 [Example 20], which chromatographic logP is on record?
A: The chromatographic logP was 1.21.

Q: With O=C(NCCC(F)(F)F)c1cnn(-c2cccnc2)c1 [Example 21] as the compound, how does the chromatographic logP read?
A: The chromatographic logP was 1.31.

Q: With O=C(NCC1OCCO1)c1cnn(-c2cccnc2)c1 [Example 22] as the compound, how does the chromatographic logP read?
A: Its chromatographic logP is 0.66.

Q: With O=C(NCC1COCCO1)c1cnn(-c2cccnc2)c1 (stereo not drawn) [Example 23] as the compound, how does the chromatographic logP read?
A: Its chromatographic logP is 0.7.

Q: Which chromatographic logP does the source give for COC(CNC(=O)c1cnn(-c2cccnc2)c1)OC [Example 24] here?
A: Its chromatographic logP is 0.83.

Q: Which chromatographic logP does the source give for O=C(NCC1CC1)c1cnn(-c2cccnc2)c1 [Example 25] here?
A: The chromatographic logP was 1.16.

Q: Which chromatographic logP does the source give for Cc1nn(-c2cccnc2)cc1C(=O)NC(C)C1CC1 (stereo not drawn) [Example 26] here?
A: Its chromatographic logP is 1.58.

Q: With Cc1nn(-c2cccnc2)cc1C(=O)NCC(C)(F)F [Example 27] as the compound, how does the chromatographic logP read?
A: Its chromatographic logP is 1.35.

Q: For Cc1nn(-c2cccnc2)cc1C(=O)NCc1ccccn1 [Example 28], which chromatographic logP is on record?
A: The chromatographic logP was 0.52.

Q: For Cc1nn(-c2cccnc2)cc1C(=O)N(C)C1CC1 [Example 29], which chromatographic logP is on record?
A: Its chromatographic logP is 1.17.

same assay, conditions: reversed-phase HPLC column (C 18), pH 3.4, formic acid method, pH 3.4; given in the preparation examples; read-out: log P (HCOOH)

Q: For CCNC(=O)c1cnn(-c2cccnc2)c1 [Example 1, N-Ethyl-1-(pyridin-3-yl)-1H-pyrazole-4-carboxamide], which chromatographic logP is on record?
A: Its chromatographic logP is 0.64.

Q: For Cc1nn(-c2cccnc2)cc1C(=O)NCC(F)(F)F [Example 2, 3-Methyl-1-(pyridin-3-yl)-N-(2,2,2-trifluoroethyl)-1H-pyrazole-4-carboxamide], which chromatographic logP is on record?
A: Its chromatographic logP is 1.45.

Q: For FC(F)(F)CNC(=S)c1cnn(-c2cccnc2)c1 [Example 12, 1-(Pyridin-3-yl)-N-(2,2,2-trifluoroethyl)-1H-pyrazole-4-carbothioamide], which chromatographic logP is on record?
A: Its chromatographic logP is 1.97.

test system: green peach aphid (Myzus persicae); experiment: Myzus test (spray treatment); type: in vivo; conditions: 144 h, application rate 50 g/ha, spray on Chinese cabbage leaf slices, after 6 days, read-out: efficacy in % (100% means that all aphids have been killed)
Protocol: Myzus Test (Spray Treatment)
Solvent: • 78 parts by weight of acetone • 1.5 parts by weight of dimethylformamide
Emulsifier: 0.5 part by weight of alkylaryl polyglycol ether
To produce an appropriate active ingredient formulation, 1 part by weight of active ingredient is mixed with the amounts of solvent and emulsifier specified and the concentrate is diluted to the desired concentration with emulsifier-containing water.
Chinese cabbage leaf slices (Brassica pekinensis) infested by all stages of the green peach aphid (Myzus persicae) are sprayed with an active ingredient formulation of the desired concentration.
After 6 days, the efficacy in % is determined. 100% means that all aphids have been killed; 0% means that no aphids have been killed.

Q: With CN(C)C(=O)c1cnn(-c2cccnc2)c1 [Example 4] as the compound, how does the pest or weed control at 50 g/ha read?
A: Its pest or weed control at 50 g/ha is 90%.

same assay, conditions: 144 h, application rate 500 g/ha, spray on Chinese cabbage leaf slices, after 6 days, read-out: efficacy in % (100% means that all aphids have been killed)

Q: Which pest or weed control at 500 g/ha does the source give for O=C(NCc1ncccn1)c1cnn(-c2cccnc2)c1 [Example 5] here?
A: The pest or weed control at 500 g/ha was 100%.

Q: Which pest or weed control at 500 g/ha does the source give for O=C(NCC(F)F)c1cnn(-c2cccnc2)c1 [Example 6] here?
A: Its pest or weed control at 500 g/ha is 100%.

Q: With Cc1nn(-c2cccnc2)cc1C(=O)NCc1ncccn1 [Example 7] as the compound, how does the pest or weed control at 500 g/ha read?
A: The pest or weed control at 500 g/ha was 100%.

Q: Which pest or weed control at 500 g/ha does the source give for CN(CC(F)(F)F)C(=O)c1cnn(-c2cccnc2)c1 [Example 8] here?
A: The pest or weed control at 500 g/ha was 100%.

Q: For Cc1nn(-c2cccnc2)cc1C(=O)N(C)C [Example 10], which pest or weed control at 500 g/ha is on record?
A: The pest or weed control at 500 g/ha was 100%.

Q: Which pest or weed control at 500 g/ha does the source give for FC(F)(F)CNC(=S)c1cnn(-c2cccnc2)c1 [Example 12, 1-(Pyridin-3-yl)-N-(2,2,2-trifluoroethyl)-1H-pyrazole-4-carbothioamide] here?
A: Its pest or weed control at 500 g/ha is 80%.

Q: For O=C(NC1(C(F)(F)F)CC1)c1cnn(-c2cccnc2)c1 [Example 13], which pest or weed control at 500 g/ha is on record?
A: Its pest or weed control at 500 g/ha is 100%.

Q: Which pest or weed control at 500 g/ha does the source give for CC(NC(=O)c1cnn(-c2cccnc2)c1)C1CC1 (stereo not drawn) [Example 14] here?
A: The pest or weed control at 500 g/ha was 100%.

Q: With CC(F)(F)CNC(=O)c1cnn(-c2cccnc2)c1 [Example 15] as the compound, how does the pest or weed control at 500 g/ha read?
A: The pest or weed control at 500 g/ha was 100%.

Q: Which pest or weed control at 500 g/ha does the source give for O=C(NCc1ccccn1)c1cnn(-c2cccnc2)c1 [Example 16] here?
A: Its pest or weed control at 500 g/ha is 100%.

Q: With O=C(NC1CC1)c1cnn(-c2cccnc2)c1 [Example 18] as the compound, how does the pest or weed control at 500 g/ha read?
A: Its pest or weed control at 500 g/ha is 100%.

Q: For CN(C(=O)c1cnn(-c2cccnc2)c1)C1CC1 [Example 19], which pest or weed control at 500 g/ha is on record?
A: The pest or weed control at 500 g/ha was 100%.

Q: With O=C(NCc1nc(C2CC2)no1)c1cnn(-c2cccnc2)c1 [Example 20] as the compound, how does the pest or weed control at 500 g/ha read?
A: Its pest or weed control at 500 g/ha is 100%.

Q: Which pest or weed control at 500 g/ha does the source give for O=C(NCCC(F)(F)F)c1cnn(-c2cccnc2)c1 [Example 21] here?
A: Its pest or weed control at 500 g/ha is 100%.

Q: With O=C(NCC1OCCO1)c1cnn(-c2cccnc2)c1 [Example 22] as the compound, how does the pest or weed control at 500 g/ha read?
A: Its pest or weed control at 500 g/ha is 100%.

Q: With O=C(NCC1COCCO1)c1cnn(-c2cccnc2)c1 (stereo not drawn) [Example 23] as the compound, how does the pest or weed control at 500 g/ha read?
A: The pest or weed control at 500 g/ha was 100%.

Q: For COC(CNC(=O)c1cnn(-c2cccnc2)c1)OC [Example 24], which pest or weed control at 500 g/ha is on record?
A: The pest or weed control at 500 g/ha was 100%.

Q: For O=C(NCC1CC1)c1cnn(-c2cccnc2)c1 [Example 25], which pest or weed control at 500 g/ha is on record?
A: The pest or weed control at 500 g/ha was 100%.

Q: For Cc1nn(-c2cccnc2)cc1C(=O)NC(C)C1CC1 (stereo not drawn) [Example 26], which pest or weed control at 500 g/ha is on record?
A: The pest or weed control at 500 g/ha was 100%.

Q: For Cc1nn(-c2cccnc2)cc1C(=O)NCC(C)(F)F [Example 27], which pest or weed control at 500 g/ha is on record?
A: The pest or weed control at 500 g/ha was 100%.

Q: Which pest or weed control at 500 g/ha does the source give for Cc1nn(-c2cccnc2)cc1C(=O)NCc1ccccn1 [Example 28] here?
A: The pest or weed control at 500 g/ha was 100%.

Q: With Cc1nn(-c2cccnc2)cc1C(=O)N(C)C1CC1 [Example 29] as the compound, how does the pest or weed control at 500 g/ha read?
A: The pest or weed control at 500 g/ha was 100%.

Q: Which pest or weed control at 500 g/ha does the source give for COC(=O)NNC(=O)c1cn(-c2cccnc2)nc1C [Example 50] here?
A: The pest or weed control at 500 g/ha was 100%.

Q: For COC(=O)N(C)NC(=O)c1cn(-c2cccnc2)nc1C [Example 54], which pest or weed control at 500 g/ha is on record?
A: Its pest or weed control at 500 g/ha is 100%.

same assay, conditions: in Brassica rapa, 144 h, read-out: efficacy in % (100% means that all aphids have been killed)

Q: For CCNC(=O)c1cnn(-c2cccnc2)c1 [Example 1, N-Ethyl-1-(pyridin-3-yl)-1H-pyrazole-4-carboxamide], which pest or weed control at 500 g/ha is on record?
A: The pest or weed control at 500 g/ha was 100%.

Q: For Cc1nn(-c2cccnc2)cc1C(=O)NCC(F)(F)F [Example 2, 3-Methyl-1-(pyridin-3-yl)-N-(2,2,2-trifluoroethyl)-1H-pyrazole-4-carboxamide], which pest or weed control at 500 g/ha is on record?
A: The pest or weed control at 500 g/ha was 100%.
